In patent US4714702A, “Quinazolinone derivative” (Tanabe Seiyaku Co., Ltd., priority 1983, dated 1987):

How the values were obtained:
Assay type in all cases: in vivo, male mice (ddY-strain)
[1] = tested on: mice; assay: Acute toxicity (oral, 72 hours); settings: for Safety margin (LD50 /ED50): potency ratio of the acute toxicity to the muscle relaxing activity, oral, mice
Experimental: (§1) A test compound dissolved or suspended in an aqueous 0.5% carboxymethylcellulose sodium salt solution was administered orally to a group of six male mice (ddY-strain, body weight: 18-20 g). The 50% lethal dose (LD50) of the test compound was calculated according to the probit method from the number of mice which died within a period of 72 hours after administration.

[2] = Acute toxicity (oral, 72 hours); settings: mouse, in vivo; oral, mice, deaths within 72 hours, probit method
Experimental: as §1

[3] = tested on: mice; assay: Muscle relaxing activity (the rotating rod method)
Experimental: A test compound dissolved or suspended in an aqueous 0.5% carboxymethylcellulose sodium salt solution was administered orally to a group of three male mice (ddY-strain, body weight: 18-20 g). After administration of the test compound, the mice were placed on a rotating rod (3.5 cm in diameter, 7.5 r.p.m.) at intervals, and the number of mice which fell out of the rod at least twice within one minute was counted. The 50% effective dose (ED50) of the test compound was calculated therefrom according to the probit method.

SMILES | Safety margin (LD50 /ED50) [1] | safety margin, times as high as that of Mephenesin ([1]; acute toxicity to muscle relaxing activity ratio, relative to Mephenesin) | LD50 at 72 h [2] [mg/kg] | ED50 ([3]; Mus musculus, oral, mice, rotating rod, probit method) [mg/kg] | muscle relaxing activity, times stronger than that of Mephenesin ([3]; rotating rod method (mice), relative to Mephenesin)
Cc1ccccc1OCC(O)CO (stereo not drawn) [Mephenesin, 3-(o-tolyloxy)-1,2-propanediol, reference compound] | 4.06 |  |  |  | 
Cc1cc(Cl)ccc1-n1c(CF)nc2ccc(N)cc2c1=O [Test compound 1, 2-fluoromethyl-3-(2-methyl-4-chlorophenyl)-6-amino-4(3H)-quinazolinone] | 51.6 | about 12.7 times | 702 | 13.6 | about 36.6 times
